Tested on: polymerase
Type: biochemical
Text: The incorporation score is a direct reflection of the incorporation half time; +++ refers to 4 to 14 seconds, ++ refers to 15 to 25 seconds, and + refers to greater than 25 seconds. The next base incorporation score reflects the incorporation half time for the next base, C refers to 20 to 100 seconds, B refers to 101 to 200 seconds, and A refers to greater than 200 seconds.

In the case of `O=C(O)CCCC[C@@H]1SC[C@@H]2NC(=O)N[C@@H]21` [biotin], the incorporation score (nucleobase not stated) is reported as “+ (+ refers to greater than 25 seconds)” and the incorporation halftime (same experimental conditions for biotin and rhodamine dye) is reported as 28 s.

— patent publication US20240392348A1, “METHODS AND COMPOSITIONS USEFUL FOR NUCLEIC ACID SEQUENCING” (Singular Genomics Systems, Inc., priority 2021, published 2024)
